What all share (format): cell-based
For test [1], the system named is ESCs / neuroepithelial progenitors. The test can be described thus: Selection of neuroepithelial progenitors from ESC embryoid bodies, Nestin immunostaining. The method, then: For these experiments, the differentiation of ESCs was preferably orientated to the neuronal differentiation pathway, according to the protocol adapted from Okabe et al., (Mechanisms of Development, 59:89-102, 1996).
In brief, to start the differentiation, the ESCs were grown on gelatin without LIF for two days. The cells were carefullly trypsinated to collect small ESC aggregates. Then, these aggregates were transferred on a Petri dish without any coating to produce non-adherent spherical cell bodies, namely the embryoid bodies (EB).
After 5 days of culture, the EB were transferred onto a new Petri dish covered with gelatin to enable cell adhesion.
After 24h of culture, the culture medium with fetal bovine serum 10% was replaced by a culture medium serum free to select neuroepithelial progenitors and the peptide NX210 (SEQ ID NO: 6) was added in the culture medium at a concentration of 0.5 mg/ml.
After 6 days of culture, the maximal content of cells expressing the nestin protein (a cytoskeletal protein specific of the neuroepithelial progenitors) was reached.
The cell population enriched for neuroepithelial progenitors was then trypsinated and seeded at a concentration of 1×10^5 cells/cm^2 on a substrate made up of a polyornithine and laminin mix. […]

Test [2] relates to human mesenchymal stem cells (hMSC). The experiment in a line: Cell proliferation of hMSCs depending on the culture conditions. Conditions: whatever the conditions / FBS concentration (2% or 10% FBS). An excerpt: Adult human bone marrow mononuclear cells Ficoll-extracted from two donors were obtained from Lonza. Cells were passaged once a week. The human mesenchymal stem cells (hMSC) were selected by plastic adherence and expanded by plating 50 000 cells/cm^2 in Modified Eagle Medium Alpha (MEMalpha, MacoPharma) supplemented with 10% Fetal Bovine Serum (FBS, PAA Laboratoires) and 0.1% Penicilline/Streptomycine (P/S, Lonza). The culture medium was changed after 3 days and then every day. After 2 to 5 weeks of culture at 37° C. in a humid environment and under 5% CO2, hMSC were harvested by trypsinization. The phenotype was confirmed by FACS analysis (BD Bioscience, BD LSR II) with CD73, CD90 and CD105 (positive), as well as CD34 and CD45 (negative) (Table 1).
(§1) To investigate the neural differentiation capacity of the peptides, 25 cm^2 flasks and 12-wells culture plates were coated with sterile aqueous solutions of either NX210 or NS640 at a concentration of 80 μg/cm^2. Coatings were carried out at 37° C. and 5% CO2 over-night prior to cell plating.
On Day 0 (D0), hMSC were seeded at a concentration of 3,000 cells/cm^2 in pre-coated 25 cm^2 flasks or 12-well culture plates in complete medium and culture was placed at 37° C. in a humid environment and under 5% CO2. After 24h, medium was changed and replaced by different combinations of media containing either: MEMalpha—bFGF 12.5 ng/mL—FBS 2%—P/S 0.1%; MEMalpha—bFGF 12.5 ng/mL—FBS 10%—P/S 0.1%; MEMalpha—FBS 2%—P/S 0.1% (control condition); MEMalpha—FBS 10%—P/S 0.1% (control condition). The cells were placed at 37° C. in a humid environment and under 5% CO2, and medium was changed twice a week. […] thus was changed with: MEMalpha—ATRA […]—FBS 2%—P/S 0.1%; MEMalpha—ATRA 20 μM—FBS 10%—P/S 0.1%; MEMalpha—FBS 2%—P/S 0.1% (control condition); MEMalpha—FBS 10%—P/S 0.1% (control condition). The cells were placed at 37° C. in a humid environment and under 5% CO2. Medium was changed twice a week. On Day 15 (D15), cells were harvested by trypsinization for mRNA extraction or fixed immunocytochemical analysis.

Test [3] shares this test system. The experiment in a line: Neural differentiation of hMSCs: immunocytochemical analysis (Nestin, MAP-2). Conditions: bFGF. The method, then:
as §1
On Day 0 (D0), hMSC were seeded at a concentration of 3,000 cells/cm^2 in pre-coated 25 cm^2 flasks or 12-well culture plates in complete medium and culture was placed at 37° C. in a humid environment and under 5% CO2. After 24h, medium was changed and replaced by different combinations of media containing either: MEMalpha—bFGF 12.5 ng/mL—FBS 2%—P/S 0.1%; MEMalpha—bFGF 12.5 ng/mL—FBS 10%—P/S 0.1%; MEMalpha—FBS 2%—P/S 0.1% (control condition); MEMalpha—FBS 10%—P/S 0.1% (control condition). The cells were placed at 37° C. in a humid environment and under 5% CO2, and medium was changed twice a week. On Day 8, medium was replaced by medium containing ATRA in the place of bFGF and thus was changed with: MEMalpha—ATRA […]—FBS 2%—P/S 0.1%; MEMalpha—ATRA 20 μM—FBS 10%—P/S 0.1%; MEMalpha—FBS 2%—P/S 0.1% (control condition); MEMalpha—FBS 10%—P/S 0.1% (control condition). The cells were placed at 37° C. in a humid environment and under 5% CO2. Medium was changed twice a week. On Day 15 (D15), cells were harvested by trypsinization for mRNA extraction or fixed immunocytochemical analysis.
Assessment of differentiation was performed by gene expression after extraction of mRNA at various time point (DO, D1, D8 and D15), and immunocytochemical analysis performed at the end of the culture period (D15).
Immunocytochemical analyses were carried out on cells fixed in 4% paraformaldehyde and using standard protocols. After blocking with Triton 1×0.1%/BSA 5% during 30 min, cells were incubated with antibodies directed against Nestin (Millipore) or MAP-2 (Sigma) overnight at +4° C. After washing, appropriate FITC or Cyandidine-5 labelled secondary antibody are added. Nuclei were counterstained with Hoescht 33258 (Sigma). Obervations were performed using Leica TCS LSI system.

The mark [4] stands for this setting: 2% FBS, with or without peptide coating (FIG. 8).

This is an account of results in patent publication US20200080053A1, “USE OF PEPTIDE COMPOUNDS FOR PROMOTING SURVIVAL, GROWTH AND CELL DIFFERENTIATION” (Axoltis Pharma, priority 2016, published 2020).

As for “W-S-G-W-S-S-C-S-R-S-C-G (WSGWSSCSRSCG) [NX210]”, the “cells expressing the Nestin protein (neuronal precursors)” value in test [1] (0.5 mg/ml NX210 in serum free medium, then 2 days with FGF2, compared to untreated culture) is reported as “More cells expressing the Nestin protein”. The “response to the specific stimulation by FGF2” value in test [1] (during selection of the neuroepithelial progenitors) is listed as “promotes a more efficient response”. For the same substance, the “effect on cell proliferation (number of MSCs)” value in test [2] is given as “no effect”. For the same substance, in test [3] (setting [4]), the “MAP-2 marker expression (immunocytochemistry staining)” value was “stronger staining” and the “Nestine marker expression (immunocytochemistry staining)” value is given as “stronger staining”. For the same substance, in test [3] (10% FBS, peptide coating (FIG. 8)), the MAP-2 protein presence result is given as “makes possible to observe MAP-2 protein presence”. In test [3] (10% FBS, with or without peptide coating, compared to the control condition (FIG. 8)), the “Nestine expression (staining intensity)” value is “maximized”.
